Assay results: patent US20090023769A1, “Organic Compounds” (NOVARTIS AG, priority 2006, published 2009)

System: monocrotaline reversal model of pulmonary hypertension
Assay: monocrotaline reversal model of pulmonary hypertension
Format: in vivo
Conditions: 3 mg/kg orally once daily from days 21-42; also dosed at 0.3 and 1 mg/kg
Experimental: The compound of formula II, namely 4-[8-(3-Fluorophenyl)-[1,7]naphthyridin-6-yl]-cyclohexanecarboxylic acid and being a representative example of compounds of formula I, is tested in the monocrotaline reversal model of pulmonary hypertension that is described by Schermuly et al in The Journal of Clinical Investigation 2005 October; 115(10):2811-21. The disclosure of that article is incorporated herein by way of reference.
4-[8-(3-Fluorophenyl)-[1,7]-naphthyridin-6-yl]-cyclohexanecarboxylic acid is dosed orally to the animals once daily from days 21-42 of the experiment at 0.3, 1 and 3 mg/kg.

O=C(O)C1CCC(c2cc3cccnc3c(-c3cccc(F)c3)n2)CC1 (stereo not shown) [4-[8-(3-Fluorophenyl)-[1,7]naphthyridin-6-yl]-cyclohexanecarboxylic acid]
shows efficacy: medial wall thickness | mortality | reversal of RV (right ventricular) pressure | reversal of RV hypertrophy
